According to patent US8436210B2, “Amide compound and bacterial disease control agent for agricultural and horticultural use” (The University of Tokyo, priority 2007, dated 2013):

Tests used:
Burkholderia glumae [1] = assay: Test Example 2: onset of Burkholderia glumae infection on rice sprayed with test liquid; assay type: in vivo; settings: for percentage of flower clusters with score 0 / percentage of flower clusters with score 1 / percentage of flower clusters with score 2 / percentage of flower clusters with score 3 / percentage of flower clusters with score 4 / percentage of flower clusters with score 5: Korean rice (Milyang 23), 7 days; for percentage of flower clusters with score 1: score 1 = 0.1% to 20% onset; for percentage of flower clusters with score 2: score 2 = 20% to 40% onset; for percentage of flower clusters with score 3: score 3 = 40% to 60% onset; for percentage of flower clusters with score 4: score 4 = 60% to 80% onset; for percentage of flower clusters with score 5: score 5 = 80% to 100% onset
Description: […] In a separate procedure, Burkholderia glumae were seeded to an LB culture medium and cultured overnight at 37° C., preparing an broth for infection.
Each test liquid (10 mL) was sprayed onto Korean rice (Milyang 23) raised in a hothouse until the flowering stage. The broth for infection was sprayed onto the rice one hour after the application of the test liquid. After cultivation for seven days, the onset of Burkholderia glumae infection on the rice was evaluated.
The evaluation was conducted by picking an ear from each plant, making a total of three ears. In each flower cluster (grain), the percentage of the portion that suffered from the onset of infection (i.e., the portion that turned brown) caused by the toxoflavin produced by Burkholderia glumae was visually observed and scored based on the scale shown below. The percentage of the total flower clusters was obtained and scored to indicate the onset of the infection.
The percentage that suffered from the onset of infection:
Not less than 0.1% and not greater than 20%: 1
Not less than 20% and not greater than 40%: 2
Not less than 40% and not greater than 60%: 3
Not less than 60% and not greater than 80%: 4
In this evaluation, three flower clusters (grains) having the same conditions were prepared, and reproducibility was confirmed by repeating the same evaluation three times. The same evaluation was also conducted as a comparative test except that water was used instead of the test liquid. Further, the same evaluation was conducted to serve as a blank except that water was used instead of both the test liquid and the broth for infection.

Burkholderia glumae [2] = assay: Test Example 3: onset of Burkholderia glumae infection on rice sprayed with test liquid; assay type: in vivo; settings: for percentage of flower clusters with score 0: score 0 = less than 0.1% onset; for percentage of flower clusters with score 0 / percentage of flower clusters with score 1 / percentage of flower clusters with score 2 / percentage of flower clusters with score 3 / percentage of flower clusters with score 4 / percentage of flower clusters with score 5: Korean rice (Milyang 23), 7 days, infection broth sprayed 1 h after treatment; for percentage of flower clusters with score 1: score 1 = 0.1% to 20% onset; for percentage of flower clusters with score 2: score 2 = 20% to 40% onset; for percentage of flower clusters with score 3: score 3 = 40% to 60% onset; for percentage of flower clusters with score 4: score 4 = 60% to 80% onset; for percentage of flower clusters with score 5: score 5 = 80% to 100% onset
Description: Each test liquid (10 mL) was sprayed onto Korean rice ([…] 23) raised in a hothouse until the flowering stage. The broth for infection was sprayed onto the rice one hour after the application of the test liquid. After cultivation for seven days, the onset of Burkholderia glumae infection on the rice was evaluated in the same manner as in Test Example 2. The same evaluation was conducted as the comparative test in the same manner except that water was used instead of the test liquid. Further, the same evaluation was conducted to serve as a blank using water instead of both the test liquid and the broth for infection.

Burkholderia glumae [3] = assay: Test Example 1: toxoflavin (toxin) production by Burkholderia glumae in LB culture; assay type: cell-based; settings: for toxin doses (toxoflavin) produced by bacteria as concentration of compound increased: 0, 20, 40, 60, 80 or 100 μM, shake culturing 20 hours, LB medium, FIG. 1
Description: Burkholderia glumae was inoculated into an LB culture medium (produced by BD, Difco LB Broth: containing tryptone (10.0 g), yeast extract (5.0 g), and sodium chloride (10.0 g)), and cultured at 37° C. overnight. The broth thus obtained was subjected to bacterial collection using a centrifuge, and the collected bacteria were washed with an LB culture medium twice using a fresh LB culture medium each time. A fresh LB culture medium was added to the bacteria, and then Compound (1a-3) produced in Production Example 3 was added thereto in such a manner that its final concentration became a predetermined value (i.e., 0, 20, 40, 60, 80 or 100 μM), followed by shake culturing for 20 hours. The amount of toxoflavin produced by the bacteria in the broth was obtained by the following procedure.
Each broth was filtered by a 0.22-μm membrane filter, and 1 mL of the filtrate was isolated. One mL of chloroform was added to the filtrate, followed by extraction. The thus-obtained chloroform layer was concentrated under reduced pressure, and an 80% (V/V) aqueous methanol solution was added to and dissolved in the residue. The absorbance (at 260 nm) of the solution was measured, and the toxin doses were calculated from the calibration curve, which was obtained using a chemically synthesized standard toxin.
The same test was conducted as a comparative test using the compound (comparative compound) shown by the formula below disclosed in Patent Document 1.

In the case of `CCCCCCCC(=O)NC1=CC(=O)CCC1` [Compound (1a-3), N-(3-oxo-cyclohexen-1-yl)octanamide], the “percentage of flower clusters with score 0” value (Burkholderia glumae [1]; 50 μM spray, score 0 = less than 0.1% of portion with onset of infection) is reported as 73%, the “percentage of flower clusters with score 1” value (Burkholderia glumae [1]; 50 μM spray) is reported as 20% and the “percentage of flower clusters with score 2” value (Burkholderia glumae [1]; 50 μM spray) is reported as 6%. For the same compound, the “percentage of flower clusters with score 3” value (Burkholderia glumae [1]; 50 μM spray) was 1%, the “percentage of flower clusters with score 4” value (Burkholderia glumae [1]; 50 μM spray) was 0% and the “percentage of flower clusters with score 5” value (Burkholderia glumae [1]; 50 μM spray) was 0%. The “percentage of flower clusters with score 0” value (Burkholderia glumae [1]; 100 μM spray, score 0 = less than 0.1% onset) was 85%, the “percentage of flower clusters with score 1” value (Burkholderia glumae [1]; 100 μM spray) was 10% and the “percentage of flower clusters with score 2” value (Burkholderia glumae [1]; 100 μM spray) was 3%. The “percentage of flower clusters with score 3” value (Burkholderia glumae [1]; 100 μM spray) was 0%, the “percentage of flower clusters with score 4” value (Burkholderia glumae [1]; 100 μM spray) was 1% and the “percentage of flower clusters with score 5” value (Burkholderia glumae [1]; 100 μM spray) was 1%. The “percentage of flower clusters with score 0” value (Burkholderia glumae [1]; 150 μM spray, score 0 = less than 0.1% onset) was 84%, the “percentage of flower clusters with score 1” value (Burkholderia glumae [1]; 150 μM spray) was 9% and the “percentage of flower clusters with score 4” value (Burkholderia glumae [1]; 150 μM spray) was 1%. The “percentage of flower clusters with score 5” value (Burkholderia glumae [1]; 150 μM spray) was 1%, the “percentage of flower clusters with score 2” value (Burkholderia glumae [1]) was 4% and the “percentage of flower clusters with score 3” value (Burkholderia glumae [1]) was 1%. For the same compound, the “onset of Burkholderia glumae on rice” value (Burkholderia glumae [1]; test liquid sprayed onto rice, then broth for infection, Table 1 and FIG. 2) was “prevented”, the “percentage of flower clusters with score 0” value (Burkholderia glumae [2]; 50 μM spray) was 62% and the “percentage of flower clusters with score 1” value (Burkholderia glumae [2]; 50 μM spray) was 15%. For the same compound, the “percentage of flower clusters with score 2” value (Burkholderia glumae [2]; 50 μM spray) was 19%, the “percentage of flower clusters with score 3” value (Burkholderia glumae [2]; 50 μM spray) was 2% and the “percentage of flower clusters with score 4” value (Burkholderia glumae [2]; 50 μM spray) was 1%. For the same compound, the “percentage of flower clusters with score 5” value (Burkholderia glumae [2]; 50 μM spray) was 1%, the “percentage of flower clusters with score 0” value (Burkholderia glumae [2]; 100 μM spray) was 82% and the “percentage of flower clusters with score 1” value (Burkholderia glumae [2]; 100 μM spray) was 9%. For the same compound, the “percentage of flower clusters with score 2” value (Burkholderia glumae [2]; 100 μM spray) was 7%, the “percentage of flower clusters with score 3” value (Burkholderia glumae [2]; 100 μM spray) was 1% and the “percentage of flower clusters with score 4” value (Burkholderia glumae [2]; 100 μM spray) was 1%. For the same compound, the “percentage of flower clusters with score 5” value (Burkholderia glumae [2]; 100 μM spray) was 0%, the “percentage of flower clusters with score 0” value (Burkholderia glumae [2]; 150 μM spray) was 89% and the “percentage of flower clusters with score 1” value (Burkholderia glumae [2]; 150 μM spray) was 8%. The “percentage of flower clusters with score 3” value (Burkholderia glumae [2]; 150 μM spray) was 1%, the “percentage of flower clusters with score 2” value (Burkholderia glumae [2]) was 1% and the “percentage of flower clusters with score 4” value (Burkholderia glumae [2]) was 1%. For the same compound, the “percentage of flower clusters with score 5” value (Burkholderia glumae [2]) was 0%, the “onset of Burkholderia glumae on rice” value (Burkholderia glumae [2]; test liquid sprayed onto rice, then broth for infection, Table 2 and FIG. 3) was “prevented” and the “toxin doses (toxoflavin) produced by bacteria as concentration of compound increased” value (Burkholderia glumae [3]) was “remarkably decreased”.

For `CCCCCCCCCC(=O)CC(=O)Nc1ccccc1O` [comparative compound], the “toxin doses (toxoflavin) produced by bacteria as concentration of compound increased” value (Burkholderia glumae [3]) was “almost no change” and the “control effect on bacterial infections” value (Burkholderia glumae [3]; statement in background referring to the Test Example) was “no control effect”.
